Data reported in PMC12048343, “Discovery of a small molecule secreted clusterin enhancer that improves memory in Alzheimer’s disease mice” (npj Drug Discovery, 2025).

Assays:
HEK 293 T cells = assay: Cytotoxicity, MultiTox-Fluor (nephrotoxicity); type: cell-based; conditions: up to 50 µM
From the text: (§2) Cell viability and toxicity were simultaneously assessed using the MultiTox-Fluor Multiplex Cytotoxicity Assay (Cat# PRG9200, Fisher Scientific) according to the manufacturer’s protocol.

HEPG2 cells = assay: Cytotoxicity, MultiTox-Fluor (hepatotoxicity); type: cell-based; conditions: HEPG2, up to 50 µM
From the text: as §2

3xTg-AD mice = assay: Barnes maze assessment of spatial learning and memory; type: in vivo, mouse; conditions: oral 15 mg/kg BID, 6 weeks; significant on Day 3 of training and in the 48-hour probe
Method: Male and female 3-month-old mice were administered DDL-357 via pipette feeding at a dose of 15 mg/kg BID (30 mg/kg/day). Mice were weighed before the first dose for the calculation of volume to be administered. The formulation used comprised DDL-357 as a 15 mg/mL solution dissolved in a strawberry flavored solution (propylene glycol/water/strawberry syrup, 2/1/1, v/v/v). ApoE4TR-5XFAD mice (7 mice, 3 females & 4 males-vehicle; 7 mice, 4females and 3 males – DDL357) were dosed for two weeks. 3xTg-AD mice (13 mice, 5 females & 8 males-vehicle; 13 mice, 4 females and 9 males- DDL357) were dosed for six weeks before entering Barnes Maze testing. At end of study, mice brain tissue and plasma were collected after euthanasia and perfusion. […]
Barnes Maze testing was performed as describe by Attar et al. Briefly, in a room with visual cues on the walls, mice are introduced in a circular maze containing 20 holes where 19 holes are closed during training and all 20 holes are closed during the probe trials. […] During the probe days, the target hole is closed, and spatial memory of the mouse is determined during a 90 s probe trial. […] Over the course of the training and probe trials, the software-calculated parameters included, but were not limited to, total distance traveled, speed, number of holes visited, latency to visiting the target/escape hole, percent time spent in the four quadrants of the maze.

[1] = tested on: sirtuin 1 (SirT1) expression in SH-SY5Y cells; assay: SirT1 AlphaLISA in SH-SY5Y cell lysate; type: cell-based, human; conditions: 200 nM, 24 h
Method: (§1) Additional assays: The Aβ1-42 ELISA assay was performed on hippocampus brain homogenate according to the manufacturer’s protocol (Fisher KHB3441). Humanin in cell culture lysate was quantify by ELISA assay, according to the manufacturer’s protocol (MyBioSourc Cat# MBS7607247). SirT1 in cell culture lysate was quantify using AlphaLISA. Cell lysate (2 μL) was added to a 384-well proxy plate preloaded with 2 µL anti-SiRT1 antibody mixture (ABCAM catalog AB110304, biotinylated (10 nM) and ABCAM catalog AB104833, acceptor bead conjugated (50 µg/mL, Cat#6772001, Perkin Elmer)) was added and incubated at room temperature for 1 hour. AlphaScreen Streptavidin Donor beads (2 µL, Cat#6760002S, Perkin Elmer) were added, incubated for an additional 30 min in the dark, and the plate was read in an Envision plate reader.

[2] = tested on: humanin (HN) expression in SH-SY5Y cells; assay: Humanin ELISA in SH-SY5Y cell lysate; type: cell-based, human; conditions: 200 nM, 24 h
Method: as §1

sCLU in SH-SY5Y cells = assay: sCLU levels in SH-SY5Y cells; type: cell-based, human; conditions: SH-SY5Y cells (Fig. S9A)
Method: Cell culture supernatant (2 μL) was added to a 384-well proxy plate preloaded with AlphaLISA HiBlock buffer (2 µL, 1X, CAT#AL004C, Perkin Elmer). Then an anti-sCLU antibody mixture (2 µL, mAb J84, biotinylated (10 nM, Cat# 3717-6-1000, Mabtech) and mAb CLU aa 22-227 (Cat#AF7084, R&D Systems), Acceptor bead conjugated (50 µg/mL, Cat#6772001, Perkin Elmer)) was added and incubated at room temperature for 1 hour. AlphaScreen Streptavidin Donor beads (2 µL, Cat#6760002S, Perkin Elmer) were added, incubated for an additional 30 min in the dark, and the plate was read in an Envision plate reader.

[3] = tested on: human iPSC-derived neurons; assay: Neurite outgrowth assay in iPSC-derived human neurons; type: cell-based; conditions: 48 h
Method: The iPSC derived human neurons were provided by the Kornblum lab to be cultured in normal growth conditions (37 °C, 5% CO2) for 2–3 days. Cells were cultured in CELLSTAR uClear 384 well plates, PS, F bottom at seeding density of 5000 cells per well coated overnight with 30 ug/mL poly-D-lysine and 2 ug/mL laminin. Media was replaced every 3 days with Lonza Primary Neuron Basal Medium (PNBM) supplemented with 2 mM L-glutamine, GA-1000, and 2% NSF-1. On day 3, cells were treated with DDL357 in doses ranging from 15,000 nM to 0.76 nM for 48 h. All compounds were diluted in 0.5% DMSO and pinned to 384 well plates with 25 µL of cell media per well with pin size of 250 nL using BioMek FX (Beckman Coulter, CA). After 48 h, media was replaced twice to ensure removal of any remaining compound residues before imaging for neurite outgrowth with Calcein-AM and Hoescht. Imaging was done at UCLA Molecular Screening Shared Resource core facility (MSSR; Robert Damoiseaux, Ph.D., Director) with ImageXPress Confocal (Molecular Devices, CA) using a 10x objective. Total neurite outgrowth was measured via a MetaXpress (Molecular Devices, CA) neurite outgrowth analysis algorithm. […] Mean neurite outgrowth per drug exposure was determined by normalizing to vehicle control (n = 60). […]

## Cc1sc2c(c1C)C(c1ccc(Cl)cc1)=N[C@@H](CC(=O)OC1CC1)c1nnc(C)n1-2 [DDL-357]
HEK 293 T cells
  Ctox: ≥ 50 µM
HEPG2 cells
  Ctox: ≥ 50 µM
3xTg-AD mice
  Barnes maze performance (latency to escape hole): performed better overall during both the training and probe phases
[1]
  sirtuin 1 (SirT1) expression: significantly increased expression
[2]
  humanin (HN) expression: significantly increased expression
sCLU in SH-SY5Y cells
  sCLU levels: increasing sCLU
[3]
  concentrations associated with significantly increased neurite outgrowth: 0.8 to 61.7 nM
